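Grown in 96-well plates, cells were treated for 48 hours with each compound at five concentrations. Insufficient inhibition: endpoint recorded as highest concentration tested. GI50 is the concentration that inhibits growth by half.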 Calls of active or inactive are those of the source. No stated cut-off is given here; in the data, active = GI50 up to about 1.1 µM and inactive = higher. A value given as a limit tells only on which side of the number the result lay.

Some test systems named below: K562; SK-OV-3; HCC 2998; HCT-116; SW-620; SF-539; MOLT-4; HOP-92; SN12C; OVCAR-5; A549; CCRF-CEM; U-251; SK-MEL-28; RXF 393; SF-268; HCT-15; EKVX; UO-31.
Test in all cases: DTP human tumour cell line panel, 48 h

Usually GI50 stands for the concentration giving 50% growth inhibition. For the compound `O=c1c2cc(I)ccc2nc(SCc2nncs2)n1Cc1ccccc1`, the GI50 with K562 was 16.7 µM (inactive); in the experiment on SK-OV-3, 43.7 µM (inactive); with HCC 2998, 16.4 µM (inactive); in the experiment with HCT-116 it was 11.6 µM (inactive); in the experiment on SW-620, > 100 µM (inactive); in the experiment with SF-539, 22.8 µM (inactive). The GI50 in the experiment on MOLT-4 was 8.3 µM (inactive); with HOP-92 it was 3.34 µM (inactive); with SN12C it was 23.9 µM (inactive); in the experiment on OVCAR-5, 99.5 µM (inactive); with A549 it was 22.9 µM (inactive); in the experiment with CCRF-CEM it was 5.71 µM (inactive). In addition, the GI50 in the experiment on U-251 was 16.9 µM (inactive); in the experiment with SK-MEL-28, 90.2 µM (inactive); in the experiment on RXF 393, 13.6 µM (inactive); in the experiment on SF-268, 14.1 µM (inactive); in the experiment on HCT-15 it was 50.2 µM; in the experiment with EKVX, 7 µM (inactive). Also, in the experiment on UO-31, the GI50 is 1.17 µM (inactive).

Take `CC(C)=CCC[C@@H](C)C1=C(O)C(=O)C(C)=C(Nc2ccccc2Br)C1=O`: the GI50 in the experiment with K562 is 10.8 µM (inactive); in the experiment with SK-OV-3, 17.5 µM (inactive); in the experiment with HCC 2998, 30.4 µM (inactive); in the experiment on HCT-116, 18.1 µM (inactive); with SW-620 it was 17.3 µM (inactive); in the experiment with SF-539, 8.59 µM (inactive). The GI50 was 4.09 µM (inactive) with MOLT-4; 11.6 µM (inactive) in the experiment on HOP-92; 12.5 µM (inactive) with SN12C; 20.3 µM (inactive) in the experiment with OVCAR-5; 17.8 µM (inactive) in the experiment on A549; 3.84 µM (inactive) in the experiment on CCRF-CEM. Moreover, the GI50 in the experiment with U-251 was 8.91 µM (inactive); in the experiment with SK-MEL-28, 14.4 µM (inactive); in the experiment on RXF 393 it was 14.3 µM (inactive); with SF-268, 7.89 µM (inactive); in the experiment with HCT-15, 6.65 µM; in the experiment with EKVX it was 17.3 µM (inactive). In addition, the GI50 with UO-31 was 11.3 µM (inactive).

Take `COc1cc2ccc1OCc1cccc(n1)COc1ccc(cc1OC)/C=N\CCNCCNCC/N=C\2`: the GI50 in the experiment on K562, in the experiment with SK-OV-3, in the experiment with HCC 2998, with HCT-116, in the experiment with SW-620 and in the experiment on SF-539 was > 100 µM (inactive) in each case. Also, the GI50 is 46.5 µM (inactive) in the experiment with MOLT-4; > 100 µM (inactive) with HOP-92; > 100 µM (inactive) in the experiment with SN12C; > 100 µM (inactive) in the experiment with OVCAR-5; > 100 µM (inactive) with A549; > 100 µM (inactive) in the experiment with CCRF-CEM. Besides, the GI50 was > 100 µM (inactive) in the experiment on U-251; > 100 µM (inactive) with RXF 393; > 100 µM (inactive) in the experiment with SF-268; greater than 100 µM in the experiment on HCT-15; > 100 µM (inactive) in the experiment on EKVX; > 100 µM (inactive) in the experiment on UO-31.

As to `COC(=O)C1=C(C(=O)OC)C23CC4CCC2(C(=O)C1O3)C4(C)C` (stereo unspecified), the GI50 with K562 is 56.2 µM (inactive); in the experiment on SK-OV-3 it was > 100 µM (inactive); in the experiment with HCC 2998, > 100 µM (inactive); in the experiment on HCT-116, 51.8 µM (inactive); with SW-620 it was 78.3 µM (inactive); in the experiment on SF-539, > 100 µM (inactive). The GI50 in the experiment with MOLT-4 is 30.4 µM (inactive); in the experiment with HOP-92 it was 48.5 µM (inactive); in the experiment with SN12C it was > 100 µM (inactive); in the experiment on OVCAR-5, > 100 µM (inactive); in the experiment on A549, > 100 µM (inactive); in the experiment with CCRF-CEM, 22.1 µM (inactive). Also, the GI50 in the experiment with U-251 is > 100 µM (inactive); in the experiment with SK-MEL-28, > 100 µM (inactive); in the experiment on RXF 393 it was 58.5 µM (inactive); with SF-268 it was 94.4 µM (inactive); with HCT-15, greater than 100 µM; in the experiment with UO-31, > 100 µM (inactive).

On to `COc1ccc(C2SCC(=O)N2NC(=O)C(C)Oc2ccccc2C)cc1` (stereo unspecified), for which the GI50 was 41.4 µM (inactive) with K562; > 100 µM (inactive) in the experiment on SK-OV-3; > 100 µM (inactive) with HCC 2998; 57.5 µM (inactive) in the experiment on HCT-116; > 100 µM (inactive) with SW-620; > 100 µM (inactive) in the experiment with SF-539. Besides, the GI50 was 31 µM (inactive) in the experiment on MOLT-4; 29.2 µM (inactive) with HOP-92; 87.7 µM (inactive) with SN12C; > 100 µM (inactive) in the experiment on OVCAR-5; 61.4 µM (inactive) in the experiment on A549; 65.2 µM (inactive) with CCRF-CEM. Further, the GI50 with U-251 is 85.7 µM (inactive); with SK-MEL-28, > 100 µM (inactive); with RXF 393, > 100 µM (inactive); in the experiment with SF-268, > 100 µM (inactive); with HCT-15 it was 54.7 µM; in the experiment on EKVX, > 100 µM (inactive). In addition, in the experiment with UO-31, the GI50 was 72.1 µM (inactive).

Turning to `Cc1cc(S(=O)(=O)Nc2nc3ccccc3[nH]2)c(S)cc1Cl`, the GI50 with K562 is 48 µM (inactive); with SK-OV-3, > 100 µM (inactive); in the experiment on HCC 2998 it was 98.9 µM (inactive); in the experiment with HCT-116, 22.4 µM (inactive); with SW-620 it was 37.6 µM (inactive); in the experiment with SF-539, > 100 µM (inactive). Besides, the GI50 in the experiment with MOLT-4 was 30.4 µM (inactive); with HOP-92, 62.5 µM (inactive); in the experiment on SN12C, > 100 µM (inactive); with OVCAR-5, > 100 µM (inactive); in the experiment on A549, 45.2 µM (inactive); with CCRF-CEM, 26.6 µM (inactive). Moreover, the GI50 with U-251 is 24.1 µM (inactive); in the experiment on SK-MEL-28 it was 27.4 µM (inactive); with RXF 393, > 100 µM (inactive); with SF-268 it was 64.7 µM (inactive); in the experiment on HCT-15, greater than 100 µM; with EKVX, 53.6 µM (inactive). Also, the GI50 in the experiment on UO-31 was > 100 µM (inactive).

For `CCOC(=O)CCNC(=O)c1cc(C)cc2c1Oc1c(cc(C)cc1C(=O)NCCC(=O)OCC)S2`, the GI50 is > 100 µM (inactive) in the experiment with K562; > 100 µM (inactive) in the experiment with SK-OV-3; > 100 µM (inactive) with HCC 2998; 24.9 µM (inactive) in the experiment with HCT-116; > 100 µM (inactive) in the experiment on SW-620; 50.4 µM (inactive) with SF-539. For the same compound, the GI50 in the experiment with MOLT-4 was > 100 µM (inactive); with HOP-92, 19.5 µM (inactive); in the experiment with SN12C it was > 100 µM (inactive); in the experiment with OVCAR-5, > 100 µM (inactive); in the experiment with A549, 64 µM (inactive); in the experiment with CCRF-CEM, > 100 µM (inactive). Moreover, the GI50 with U-251 was 62.5 µM (inactive); with SK-MEL-28, > 100 µM (inactive); in the experiment with RXF 393, 20.9 µM (inactive); in the experiment on SF-268 it was 49.2 µM (inactive); in the experiment on HCT-15 it was greater than 100 µM; in the experiment on EKVX, > 100 µM (inactive). Moreover, the GI50 in the experiment on UO-31 is > 100 µM (inactive).

In the case of `Clc1nc(NC23CC4CC(CC(C4)C2)C3)nc(NC23CC4CC(CC(C4)C2)C3)n1`, the GI50 in the experiment on K562 is 4.62 µM (inactive); with SK-OV-3, > 76.6 µM (inactive); in the experiment with HCC 2998, 53.5 µM (inactive); in the experiment on HCT-116 it was 15.6 µM (inactive); with SW-620 it was 62.4 µM (inactive); in the experiment with SF-539, > 75.9 µM (inactive). Moreover, the GI50 was 17.5 µM (inactive) with MOLT-4; 17.3 µM (inactive) in the experiment with HOP-92; > 83.4 µM (inactive) with SN12C; > 100 µM (inactive) with OVCAR-5; 43.9 µM (inactive) in the experiment on A549; 17 µM (inactive) with CCRF-CEM. Besides, the GI50 was 26.7 µM (inactive) in the experiment with U-251; > 100 µM (inactive) with SK-MEL-28; 17.9 µM (inactive) with RXF 393; > 83.4 µM (inactive) with SF-268; 34.7 µM in the experiment on HCT-15; > 89.9 µM (inactive) in the experiment on EKVX. Besides, the GI50 in the experiment on UO-31 was 23.4 µM (inactive).

Turning to `CSc1cc(-c2ccccn2)nc(-c2ccccn2)c1`, the GI50 in the experiment on K562 was 0.248 µM (active); with SK-OV-3 it was 0.255 µM (active); in the experiment with HCC 2998 it was 0.0518 µM (active); in the experiment with HCT-116, 0.0682 µM (active); in the experiment with SW-620, 0.126 µM (active); with SF-539, 0.171 µM (active). Also, the GI50 in the experiment on MOLT-4 is 0.0421 µM (active); with HOP-92 it was 0.0959 µM (active); in the experiment with SN12C, 0.0991 µM (active); in the experiment with OVCAR-5, 0.179 µM (active); in the experiment on A549 it was 0.137 µM (active); with CCRF-CEM, 0.0527 µM (active). Further, the GI50 in the experiment with U-251 was 0.0766 µM (active); with SK-MEL-28, 0.0736 µM (active); in the experiment on RXF 393 it was 0.255 µM (active); in the experiment on SF-268, 0.0559 µM (active); in the experiment on HCT-15, 0.0324 µM; in the experiment with EKVX it was 0.0906 µM (active). For the same compound, in the experiment on UO-31, the concentration for 50% growth inhibition (GI50) was 0.0607 µM (active).

Consider `CCOC(=O)N/N=C(/N)Cc1ccc(Cl)cc1`, for which the GI50 in the experiment with K562, in the experiment with SK-OV-3, in the experiment with HCC 2998, in the experiment with HCT-116, with SW-620 and with SF-539 was > 100 µM (inactive) each time. The GI50 in the experiment on MOLT-4, in the experiment on HOP-92, in the experiment with SN12C, in the experiment with OVCAR-5, in the experiment on A549 and in the experiment on CCRF-CEM was > 100 µM (inactive) throughout. The GI50 was > 100 µM (inactive) in the experiment on U-251; > 100 µM (inactive) in the experiment with SK-MEL-28; > 100 µM (inactive) in the experiment on RXF 393; > 100 µM (inactive) with SF-268; greater than 100 µM with HCT-15; > 100 µM (inactive) in the experiment with EKVX. In addition, in the experiment on UO-31, the GI50 was > 100 µM (inactive).

`CCC(C#N)N(Cc1cccc(CN(C(C)=O)C(C#N)CC)c1)C(C)=O` (stereo unspecified): the GI50 in the experiment on K562 was > 100 µM (inactive); with SK-OV-3 it was > 100 µM (inactive); in the experiment with HCC 2998, 97.1 µM (inactive); with HCT-116, > 100 µM (inactive); with SW-620, > 100 µM (inactive); with SF-539, > 100 µM (inactive). The GI50 was 5.52 µM (inactive) in the experiment with MOLT-4; 6.56 µM (inactive) in the experiment on HOP-92; > 100 µM (inactive) in the experiment with SN12C; > 100 µM (inactive) in the experiment on OVCAR-5; > 100 µM (inactive) in the experiment with A549; > 100 µM (inactive) in the experiment on CCRF-CEM. Moreover, the GI50 was > 100 µM (inactive) in the experiment with U-251; > 100 µM (inactive) with RXF 393; > 100 µM (inactive) in the experiment with SF-268; 42.9 µM in the experiment on HCT-15; > 100 µM (inactive) in the experiment with EKVX; > 100 µM (inactive) with UO-31.

Source of the values: ChEMBL document CHEMBL1201862, “PubChem BioAssay data set” (2004).
